Data set [1] relates to alkaline phosphatase, Type VII-S from Bovine Intestinal Mucosa. The data set is described as follows: Enzymatic triggering of chemiluminescence with alkaline phosphatase (bovine). The following applies: 2-amino-2-methyl-1-propanol buffer pH 10.3, 37° C., 10 μL enzyme suspension. Format: biochemical. Here is the method:
A cuvette containing 3 mL of a buffer solution of 2-amino-2-methyl-1-propanol (Sigma Chemical Co., pH=10.3, 1.5M) was placed in the black box at 37° C. A portion (200 μL) of the dioxetane stock solution (6d in CH2 Cl2) was added to this buffer solution. Subsequent addition of 10 μL of an alkaline phosphatase suspension [Sigma, Type VII-S from Bovine Intestinal Mucosa, suspension in 3.2M (NH4)2 SO4 ] gave rise to chemiluminescence over a period of approximately 2-3 min indicating the enzymatic triggering of the dioxetane.

For data set [2] the following is noted: 25° C.; cited from earlier work.

For `O=P(O)(O)Oc1ccc2c(c1)Oc1ccccc1C21OOC12C1CC3CC(C1)CC2C3` (centres unmarked) [Dioxetane 6d, Dispiro[adamantane-2,3'-[1,2]dioxetane-4',9"-(3-phosphate-9H-xanthene]], the period of chemiluminescence in data set [1] was in the range of 2 to 3 min.

In the case of `Oc1ccc(C23OCCOC2(c2ccccc2)OO3)cc1` (centres unmarked) [deprotonated dioxetane (X=O^-)], the “rate of decomposition relative to protonated form (X=OH)” value in data set [2] was 5.7×10^6 times.

Values taken from patent US4857652A, “Chemiluminescent 1,2-dioxetane compounds” (priority 1988, dated 1989).
